{
  "source": "ChEMBL document CHEMBL5465560",
  "about": "“Selectivity Literature for EUbOPEN Chemogenomic Library” (2024)",
  "key": {"[1]": {"molecular_target": "T1, STE20-related kinase adapter protein alpha (Homo sapiens) (UniProt Q7RTN6)", "T1 sequence (whole entry)": "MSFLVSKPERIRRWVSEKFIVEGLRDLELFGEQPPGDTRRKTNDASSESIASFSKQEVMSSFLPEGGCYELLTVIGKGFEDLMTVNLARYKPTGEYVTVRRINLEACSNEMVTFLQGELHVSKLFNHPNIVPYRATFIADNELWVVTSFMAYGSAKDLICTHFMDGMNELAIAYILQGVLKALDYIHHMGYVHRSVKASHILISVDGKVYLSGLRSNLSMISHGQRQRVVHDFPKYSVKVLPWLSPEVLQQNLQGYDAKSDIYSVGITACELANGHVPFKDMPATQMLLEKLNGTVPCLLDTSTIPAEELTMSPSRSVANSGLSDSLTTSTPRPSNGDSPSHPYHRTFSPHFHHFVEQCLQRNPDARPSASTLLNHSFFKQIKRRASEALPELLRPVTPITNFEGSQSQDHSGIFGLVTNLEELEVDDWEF", "experiment": "Selectivity interaction (ActivX KiNativ screen (kinase selectivity in THP-1 cell lysates)) EUB0000639a STRADA", "format": "subcellular", "details": "lysate, at 0.01 µM"}, "[2]": {"molecular_target": "Serine/threonine-protein kinase tousled-like 2 (Homo sapiens) (UniProt Q86UE8)", "sequence (Q86UE8 whole entry, looked up)": "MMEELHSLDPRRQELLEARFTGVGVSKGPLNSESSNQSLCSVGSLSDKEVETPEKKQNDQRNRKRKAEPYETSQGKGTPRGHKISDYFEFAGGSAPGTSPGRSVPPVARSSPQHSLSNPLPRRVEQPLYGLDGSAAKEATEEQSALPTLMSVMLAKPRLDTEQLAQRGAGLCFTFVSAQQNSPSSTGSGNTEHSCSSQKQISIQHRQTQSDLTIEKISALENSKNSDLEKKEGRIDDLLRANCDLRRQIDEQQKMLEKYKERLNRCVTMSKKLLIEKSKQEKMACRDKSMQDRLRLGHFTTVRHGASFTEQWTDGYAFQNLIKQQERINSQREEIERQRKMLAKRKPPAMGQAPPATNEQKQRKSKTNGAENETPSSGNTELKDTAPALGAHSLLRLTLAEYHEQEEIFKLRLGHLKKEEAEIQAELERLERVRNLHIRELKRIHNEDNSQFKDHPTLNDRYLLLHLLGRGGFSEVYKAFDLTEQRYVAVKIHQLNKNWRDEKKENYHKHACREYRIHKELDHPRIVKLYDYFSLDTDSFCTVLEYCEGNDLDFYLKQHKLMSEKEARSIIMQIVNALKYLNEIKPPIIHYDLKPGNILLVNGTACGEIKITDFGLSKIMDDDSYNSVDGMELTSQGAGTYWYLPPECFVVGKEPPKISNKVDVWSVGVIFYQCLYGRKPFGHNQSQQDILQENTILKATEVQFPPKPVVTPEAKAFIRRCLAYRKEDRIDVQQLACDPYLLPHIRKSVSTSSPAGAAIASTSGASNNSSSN", "experiment": "Selectivity interaction (ActivX KiNativ screen (kinase selectivity in THP-1 cell lysates)) EUB0000639a TLK2", "format": "subcellular", "details": "lysate, at 5 µM"}, "[3]": {"molecular_target": "Protein kinase C delta type (Homo sapiens) (UniProt Q05655)", "sequence (Q05655 whole entry, looked up)": "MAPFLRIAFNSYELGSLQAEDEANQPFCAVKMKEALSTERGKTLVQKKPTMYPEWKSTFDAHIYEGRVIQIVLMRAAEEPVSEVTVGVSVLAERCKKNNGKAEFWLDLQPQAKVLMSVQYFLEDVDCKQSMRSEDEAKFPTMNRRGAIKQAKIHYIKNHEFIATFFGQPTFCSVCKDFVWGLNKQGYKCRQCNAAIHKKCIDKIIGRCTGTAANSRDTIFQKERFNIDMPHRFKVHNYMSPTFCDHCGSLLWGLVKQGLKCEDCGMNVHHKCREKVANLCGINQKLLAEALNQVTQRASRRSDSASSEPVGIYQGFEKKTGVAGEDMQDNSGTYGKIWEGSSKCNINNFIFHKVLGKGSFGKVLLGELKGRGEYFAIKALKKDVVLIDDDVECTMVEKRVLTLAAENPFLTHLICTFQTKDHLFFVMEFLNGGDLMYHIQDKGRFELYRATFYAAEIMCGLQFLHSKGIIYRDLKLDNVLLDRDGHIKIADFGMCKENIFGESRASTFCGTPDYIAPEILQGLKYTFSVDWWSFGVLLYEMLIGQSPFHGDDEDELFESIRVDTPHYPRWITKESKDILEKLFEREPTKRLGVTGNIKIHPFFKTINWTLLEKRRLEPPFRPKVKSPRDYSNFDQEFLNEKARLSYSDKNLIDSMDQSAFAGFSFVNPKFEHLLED", "details": "at 10 µM"}, "[4]": {"molecular_target": "T2, Alpha-1A adrenergic receptor (Homo sapiens) (UniProt P35348)", "T2 sequence (whole entry)": "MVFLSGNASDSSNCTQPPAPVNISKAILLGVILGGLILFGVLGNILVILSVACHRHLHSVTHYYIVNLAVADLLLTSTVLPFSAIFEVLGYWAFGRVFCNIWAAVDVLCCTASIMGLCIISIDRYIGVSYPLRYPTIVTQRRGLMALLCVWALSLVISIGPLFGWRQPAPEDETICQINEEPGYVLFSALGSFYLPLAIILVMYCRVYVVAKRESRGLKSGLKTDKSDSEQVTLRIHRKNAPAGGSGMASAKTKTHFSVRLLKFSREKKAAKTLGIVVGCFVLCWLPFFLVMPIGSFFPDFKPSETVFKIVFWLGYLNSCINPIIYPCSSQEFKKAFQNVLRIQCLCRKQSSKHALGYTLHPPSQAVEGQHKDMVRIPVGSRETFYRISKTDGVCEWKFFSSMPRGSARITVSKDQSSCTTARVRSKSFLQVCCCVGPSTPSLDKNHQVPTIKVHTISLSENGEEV", "experiment": "Selectivity interaction (GPCR panel (PDSP screen)) EUB0001079a ADRA1A", "details": "at 10 µM"}, "[5]": {"molecular_target": "T3, Cyclin-dependent kinase-like 5 (Homo sapiens) (UniProt O76039)", "T3 sequence (whole entry)": "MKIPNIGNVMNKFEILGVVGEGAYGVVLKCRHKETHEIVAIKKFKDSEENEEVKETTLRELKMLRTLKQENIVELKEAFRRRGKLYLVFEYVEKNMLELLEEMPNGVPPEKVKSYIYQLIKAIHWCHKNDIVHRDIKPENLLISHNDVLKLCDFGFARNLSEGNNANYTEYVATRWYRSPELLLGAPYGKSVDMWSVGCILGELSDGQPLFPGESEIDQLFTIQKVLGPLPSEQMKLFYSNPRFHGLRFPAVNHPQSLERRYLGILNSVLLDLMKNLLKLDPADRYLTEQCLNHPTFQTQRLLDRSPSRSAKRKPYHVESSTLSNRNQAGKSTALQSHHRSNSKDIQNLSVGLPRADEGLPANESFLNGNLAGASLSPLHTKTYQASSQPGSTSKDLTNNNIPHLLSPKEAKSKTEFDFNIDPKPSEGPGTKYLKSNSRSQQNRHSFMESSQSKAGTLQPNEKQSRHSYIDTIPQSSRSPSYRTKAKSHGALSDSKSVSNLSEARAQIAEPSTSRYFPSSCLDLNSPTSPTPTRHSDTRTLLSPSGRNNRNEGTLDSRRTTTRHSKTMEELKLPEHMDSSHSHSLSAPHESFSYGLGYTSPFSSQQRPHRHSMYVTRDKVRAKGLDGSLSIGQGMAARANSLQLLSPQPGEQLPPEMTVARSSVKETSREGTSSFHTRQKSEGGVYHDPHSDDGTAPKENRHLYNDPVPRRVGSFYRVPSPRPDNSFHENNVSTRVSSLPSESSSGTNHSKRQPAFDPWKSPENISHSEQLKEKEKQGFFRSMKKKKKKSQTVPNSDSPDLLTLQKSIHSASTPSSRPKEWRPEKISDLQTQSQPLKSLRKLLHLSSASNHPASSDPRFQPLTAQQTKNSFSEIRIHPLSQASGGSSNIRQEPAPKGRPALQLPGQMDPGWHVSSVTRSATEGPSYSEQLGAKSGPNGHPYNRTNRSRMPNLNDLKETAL", "experiment": "Selectivity interaction (KinomeScan (DiscoverX)) EUB0001079a CDKL5", "details": "at 1 µM"}, "[6]": {"molecular_target": "T4, Cyclin-dependent kinase 11A (Homo sapiens) (UniProt Q9UQ88)", "T4 sequence (whole entry)": "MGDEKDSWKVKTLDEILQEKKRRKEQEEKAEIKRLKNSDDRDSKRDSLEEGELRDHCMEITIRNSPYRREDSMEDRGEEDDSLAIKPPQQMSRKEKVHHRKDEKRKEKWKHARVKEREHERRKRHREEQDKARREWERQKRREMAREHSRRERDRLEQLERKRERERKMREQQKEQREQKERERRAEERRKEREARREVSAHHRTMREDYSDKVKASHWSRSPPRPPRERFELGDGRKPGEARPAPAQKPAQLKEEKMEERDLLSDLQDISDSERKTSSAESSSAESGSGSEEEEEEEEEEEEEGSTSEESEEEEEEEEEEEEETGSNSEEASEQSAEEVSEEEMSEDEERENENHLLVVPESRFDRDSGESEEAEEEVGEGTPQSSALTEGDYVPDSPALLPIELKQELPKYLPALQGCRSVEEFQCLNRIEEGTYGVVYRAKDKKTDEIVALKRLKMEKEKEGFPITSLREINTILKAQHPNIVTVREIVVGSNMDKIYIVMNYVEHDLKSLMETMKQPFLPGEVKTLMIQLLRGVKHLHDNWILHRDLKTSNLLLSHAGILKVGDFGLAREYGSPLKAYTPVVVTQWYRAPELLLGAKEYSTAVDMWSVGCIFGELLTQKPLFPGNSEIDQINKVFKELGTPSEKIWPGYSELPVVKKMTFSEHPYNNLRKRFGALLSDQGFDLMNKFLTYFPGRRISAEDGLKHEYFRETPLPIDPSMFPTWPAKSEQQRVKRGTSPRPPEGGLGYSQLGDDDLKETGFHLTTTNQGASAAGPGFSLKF", "experiment": "Selectivity interaction (KinomeScan (DiscoverX)) EUB0000045b CDK11A", "details": "at 10 µM"}, "[7]": {"molecular_target": "Dual specificity tyrosine-phosphorylation-regulated kinase 1A (Homo sapiens, UniProt Q13627)", "experiment": "Selectivity interaction (KinomeScan (DiscoverX)) EUB0000666a DYRK1A", "details": "at 10 µM"}},
  "data": [
    {"smiles": "CC[C@@H]1[C@H](F)C(=O)N[C@@H]1COc1nccc2cc(C(N)=O)c(OC)cc12", "note": "[ZIMLOVISERTIB]", "values": [
      {"measurement": "% of inhibition", "setting": "[1]", "value": -6.5, "unit": "%"},
      {"measurement": "% of inhibition", "setting": "[2]", "value": 80.5, "unit": "%"}
    ]},
    {"smiles": "CCN(CC)CCCCNc1ncc2cc(-c3cc(OC)cc(OC)c3)c(NC(=O)NC(C)(C)C)nc2n1", "values": [
      {"measurement": "% of control", "setting": "[3]", "value": 100, "unit": "%"}
    ]},
    {"smiles": "Nc1cnc(N2CCc3cc(S(=O)(=O)Nc4c(F)cc(Cl)cc4F)cc(N4CCCC4=O)c32)nc1", "note": "[TP-020n]", "values": [
      {"measurement": "% of inhibition", "setting": "[4]", "value": -15.7, "unit": "%"},
      {"measurement": "% of control", "setting": "[5]", "value": 88, "unit": "%"}
    ]},
    {"smiles": "C=CC(=O)Nc1cc(-n2c(=O)ccc3cnc4ccc(-c5ccc(NS(C)(=O)=O)cc5)cc4c32)ccc1C", "values": [
      {"measurement": "% of control", "setting": "[6]", "value": 100, "unit": "%"}
    ]},
    {"smiles": "O=C(NOC[C@H](O)CO)c1ccc(F)c(F)c1Nc1ccc(I)cc1F", "values": [
      {"measurement": "% of control", "setting": "[7]", "value": 100, "unit": "%"}
    ]}
  ]
}
